# From publication PMC10764553, “Characterization of a thermophilic and glucose-tolerant GH1 β-glucosidase from hot springs and its prospective application in corn stover degradation” (Frontiers in Microbiology, 2023)
# Legend:
# LQBG8 [1] = system: T1, LQBG8; experiment: glucose release (glucose oxidase-peroxidase), Lineweaver-Burk; type: biochemical; details: 70 °C, pH 5.6; cellobiose 0-20 mg/mL (Km lies above the tested range)
# T1 construct: differs from Tepidiforma bonchosmolovskayae WP158066159.1 only at residue 48 (Ser in LQBG8, Gly there)
# LQBG8 [2] = system: T1, LQBG8; experiment: p-nitrophenol release at […] nm; type: biochemical; details: optimal temperature (70 °C); pH not stated for this assay
Km (LQBG8 [1]) [mg/mL],Km (LQBG8 [2]) [µM],SMILES
28 ± 1.9,,OC[C@H]1O[C@@H](O[C@H]2[C@H](O)[C@@H](O)C(O)O[C@@H]2CO)[C@H](O)[C@@H](O)[C@@H]1O (some centres unmarked) [cellobiose]
,260 ± 10,O=[N+]([O-])c1ccc(O[C@@H]2O[C@H](CO)[C@@H](O)[C@H](O)[C@H]2O)cc1 [p-nitrophenyl-β-D-glucopyranoside]
